Measured values as given in ChEMBL document CHEMBL1201862, “PubChem BioAssay data set” (2004).
Calls of active or inactive are those of the source. For most assays here, no stated cut-off is given here; in the data, actives have a measured EC50 and inactives only a lower limit.

Experiments:
[1] = biological target: T1, Heat shock factor protein 1 (Mus musculus, UniProt P38532); assay: inhibition of MG132-induced HSE-luciferase signal, confirmation, cell-based, NIH3T3, luminescence, dose retest (AID 2382); assay type: functional;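 further: NIH3T3 fibroblasts with HSF1-driven luciferase reporter stressed by proteasome inhibitor MG132; luminescence from HSF1-driven luciferase expression after 8 hours of MG132 stress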
T1 sequence (P38532 whole entry): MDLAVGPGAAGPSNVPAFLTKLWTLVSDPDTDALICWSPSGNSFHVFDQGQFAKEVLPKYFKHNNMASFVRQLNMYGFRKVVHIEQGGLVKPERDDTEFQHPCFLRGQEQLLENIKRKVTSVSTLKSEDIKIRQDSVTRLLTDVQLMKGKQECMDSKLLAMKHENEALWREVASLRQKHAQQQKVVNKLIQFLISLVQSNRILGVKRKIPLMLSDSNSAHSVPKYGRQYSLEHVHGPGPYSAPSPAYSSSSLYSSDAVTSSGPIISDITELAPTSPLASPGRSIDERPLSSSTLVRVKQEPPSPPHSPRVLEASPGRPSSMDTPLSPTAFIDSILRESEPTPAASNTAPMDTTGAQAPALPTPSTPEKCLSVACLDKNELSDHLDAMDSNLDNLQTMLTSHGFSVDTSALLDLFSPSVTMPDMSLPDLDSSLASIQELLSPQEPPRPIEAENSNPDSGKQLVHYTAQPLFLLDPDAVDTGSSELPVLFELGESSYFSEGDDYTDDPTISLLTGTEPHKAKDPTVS

[2] = biological target: T1, Heat shock factor protein 1; assay: HSF1 potentiators in luciferase reporter cells, confirmation, cell-based, NIH3T3, luminescence, dose retest (AID 435004); assay type: functional;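 further: stress induced by proteasome inhibitor MG132 added 30 min after compound; luciferase reporter driven by HSF1 response element in NIH3T3 cells; actives raise luminescence as potentiators of the MG132 stress response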
Protein skinhead-1 = biological target: T2, Protein skinhead-1 (Caenorhabditis elegans, UniProt P34707); assay type: functional
T2 sequence (P34707 whole entry): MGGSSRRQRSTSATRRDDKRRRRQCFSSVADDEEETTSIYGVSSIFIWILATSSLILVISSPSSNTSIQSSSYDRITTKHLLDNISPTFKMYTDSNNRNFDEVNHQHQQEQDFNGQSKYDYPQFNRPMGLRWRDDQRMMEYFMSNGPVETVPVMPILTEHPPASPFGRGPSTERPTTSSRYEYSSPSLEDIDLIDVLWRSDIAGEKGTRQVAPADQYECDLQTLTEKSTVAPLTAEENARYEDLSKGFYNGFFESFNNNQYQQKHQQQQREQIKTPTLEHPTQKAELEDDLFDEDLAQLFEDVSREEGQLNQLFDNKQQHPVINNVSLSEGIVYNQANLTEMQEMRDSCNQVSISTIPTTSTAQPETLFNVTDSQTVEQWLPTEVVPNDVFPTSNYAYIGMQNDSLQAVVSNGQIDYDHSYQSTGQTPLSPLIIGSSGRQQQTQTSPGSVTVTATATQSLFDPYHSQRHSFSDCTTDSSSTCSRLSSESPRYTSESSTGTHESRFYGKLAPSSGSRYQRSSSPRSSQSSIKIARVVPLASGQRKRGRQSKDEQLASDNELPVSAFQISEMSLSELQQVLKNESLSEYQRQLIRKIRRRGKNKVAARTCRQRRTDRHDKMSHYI

[3] = HEp-2 cell cytotoxicity, dose response, cytotoxicity control for RSV inhibitor project, HTS (AID 2410); assay type: functional; conditions: human respiratory syncytial virus
[4] = system: Streptococcus sp. 'group A'; assay: growth inhibition of control SK(-) GAS strain, dose response, counter-screen for streptokinase expression inhibitor project, luminescence, kanamycin, BacTiterGlo, confirmation (AID 1900); assay type: functional, organism-based
Streptokinase A = biological target: T3, Streptokinase A (Streptococcus pyogenes serotype M1, UniProt P10520); assay: S. pyogenes streptokinase expression inhibitors, potency, dose response, plasminogen activation absorbance, OD405 (AID 1914); assay type: functional, Streptococcus pyogenes M1 GAS;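 further: secreted streptokinase activity via plasminogen activation per viability signal from cell pellet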
T3 sequence (P10520 whole entry): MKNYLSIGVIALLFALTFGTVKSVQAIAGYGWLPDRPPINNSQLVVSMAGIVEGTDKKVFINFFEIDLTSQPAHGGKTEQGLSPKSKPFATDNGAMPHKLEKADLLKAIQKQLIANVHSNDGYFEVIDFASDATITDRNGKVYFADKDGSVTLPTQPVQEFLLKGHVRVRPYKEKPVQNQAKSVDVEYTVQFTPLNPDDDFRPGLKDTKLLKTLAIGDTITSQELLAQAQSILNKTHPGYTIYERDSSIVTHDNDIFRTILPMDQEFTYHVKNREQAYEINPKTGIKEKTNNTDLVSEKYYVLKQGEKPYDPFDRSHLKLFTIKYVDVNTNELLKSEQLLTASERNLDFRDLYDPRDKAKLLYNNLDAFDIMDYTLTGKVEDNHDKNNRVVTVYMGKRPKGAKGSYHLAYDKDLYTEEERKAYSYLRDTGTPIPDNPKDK

Streptococcus = assay: Group A Streptococcus viability loss, dose response, counter-screen for streptokinase expression inhibitor project, luminescence, BacTiterGlo (AID 1915); assay type: functional, organism-based;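 further: potency for reduction of bacterial viability or growth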
H9c2 = assay: cells; assay type: functional, cell-based; conditions: Rattus norvegicus, H9c2, Myocardium;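 further: confirmatory concentration-response retest of ultra-high-throughput screening hits for modulation of myocardial damage; cell death induced by hydrogen peroxide oxidative stress; compound pretreatment for 60 min then peroxide exposure for 2 h; potency is for protecting the cells against peroxide damage rather than for killing them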
[5] = inhibitors of firefly luciferase expression or activity, dose response, H4 neuroglioma cells, luminescence (AID 1990); assay type: functional, cell-based
[6] = Luminescence Cell-Based Dose Response HTS to Identify Inhibitors of 5'UTR Stem-Loop Driven Prion Protein mRNA Translation in H4 Neuroglioblastoma Cells. [Related pubchem assays: 1827 (Project Summary), 1813 (Primary HTS)]; assay type: functional
[7] = Luminescence Cell-Based Dose Retest to Confirm Inhibitors of Cancer Stem Cells. [Related pubchem assays (depositor defined):AID2717, AID2721]; assay type: functional; conditions: Homo sapiens
[8] = inhibitors of SNCA 5'UTR-driven reporter translation, confirmation, H4 neuroglioma cells, luminescence (AID 1988); assay type: functional, cell-based
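Wherever AC50 is given: cells exposed to compound for roughly 70 hours or longer before luminescence read.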

Structure (SMILES): CCCN=C(S)NC1CC2CCCC(C1)N2Cc1ccc(F)cc1 (stereo not given)
- EC50 [1]: > 195 µM (not active)

Structure (SMILES): Cc1cccc(C)c1OCC(=O)N/N=C/C=C/c1ccco1
- EC50 [2]: > 260 µM (inactive)

Structure (SMILES): Brc1ccc(-c2nc(-c3cccnc3)no2)o1
- IC50 (Protein skinhead-1): 42.7 µM (active)

Structure (SMILES): O=[N+]([O-])c1ccc(N2CCc3ccccc3C2)nc1
- CC50 [3]: 19.6 µM (active)

Structure (SMILES): Cc1ccc(NC(=O)C(OC(=O)c2ccc(NC(N)=O)cc2)c2ccccc2)cc1Cl (stereo not given)
- EC50 [4]: 9.28 µM (active)
- EC50 (Streptokinase A): > 150 µM (not active)
- EC50 (Streptococcus): 9.31 µM (active)

Structure (SMILES): COc1cc(NC(=O)c2cc(C)nc3ccccc23)cc(OC)c1
- EC50 [1]: > 195 µM (not active)

Structure (SMILES): COCCNC(=O)c1ccc(-c2ccc(OC)cc2C)c2ccoc12
- IC50 (Protein skinhead-1): > 100 µM (inactive)

Structure (SMILES): CCN(CC)c1ccc([N+](=O)[O-])cc1C(=O)N1CCOCC1
- EC50 [2]: > 260 µM (inactive)

Structure (SMILES): Clc1c(-c2nnc3n2CCC3)sc2ccccc12
- CC50 [3]: 30.9 µM (active)

Structure (SMILES): COc1cc(/C=N/NC(=O)c2cccnc2)ccc1OS(=O)(=O)c1cc(C)ccc1C
- IC50 (H9c2): > 79 µM (inactive)

Structure (SMILES): O=C(Nc1nc(SCc2ccc(F)cc2)ns1)c1ccco1
- IC50 (Protein skinhead-1): 70.5 µM (inactive)

Structure (SMILES): Cc1ccc(S(=O)(=O)NCCC(=O)N2CCN(S(=O)(=O)c3ccccc3)CC2)cc1C
- EC50 [1]: > 195 µM (not active)

Structure (SMILES): CCN(CC)S(=O)(=O)c1cc(C(=O)Nc2cc(C)on2)ccc1Cl
- EC50 [1]: > 195 µM (not active)

Structure (SMILES): O=C[C@H](O)[C@@H](O)[C@H](O)CO [XYLOSE]
- EC50 [1]: > 195 µM (not active)

Structure (SMILES): CN(C)C=O.COc1cc(/C=C/c2nc3ccccc3c(=O)n2-c2ccc(O)cc2)ccc1O
- IC50 (H9c2): > 79 µM (inactive)

Structure (SMILES): O=C(CCc1nc(O)c2ccccc2n1)NCC(=O)Nc1ccc(F)c(F)c1
- IC50 (H9c2): 25.2 µM (active)

Structure (SMILES): O=C(NN1C(=O)C2C(C1=O)C1C=CC2C12CC2)c1ccc(Cl)cc1 (stereo not given)
- EC50 [2]: > 260 µM (inactive)

Structure (SMILES): Cc1ccc(Cl)cc1N1CCN(C2CCCCC2NS(=O)(=O)c2ccccc2)CC1 (stereo not given)
- EC50 [2]: > 260 µM (inactive)

Structure (SMILES): CC(C)c1ccc(NC(=O)CNC(=O)Cn2cnc3ccccc3c2=O)cc1
- EC50 [1]: 60.8 µM (active)

Structure (SMILES): COc1ccc(CCCC(=O)N/N=C/c2cccc(OC)c2O)cc1C
- EC50 [5]: 11.1 µM (active)
- EC50 [4]: 2.9 µM (active)
- EC50 (Streptokinase A): > 150 µM (not active)
- EC50 [6]: 48.6 µM (active)
- AC50 [7]: 0.936 µM (active)
- EC50 [8]: 10.6 µM (active)
- EC50 (Streptococcus): 3.61 µM (active)

Structure (SMILES): O=C1CN(C(=O)c2ccc(Br)o2)C(c2ccccc2)c2cc(Br)ccc2N1 (stereo not given)
- IC50 (Protein skinhead-1): 83.6 µM (inactive)

Structure (SMILES): CC(Cc1ccccc1)C(=O)Nc1ccccc1 (stereo not given)
- EC50 [1]: > 195 µM (not active)

Structure (SMILES): COc1ccc(-c2cc(C(=O)NNC(=O)c3csc(N4CCOCC4)n3)c3ccccc3n2)cc1
- IC50 (H9c2): > 79 µM (inactive)

Structure (SMILES): Oc1cc(-c2ccccc2Cl)c2c(n1)CCC2
- IC50 (Protein skinhead-1): > 100 µM (inactive)

Structure (SMILES): Cc1ccc(NC(=O)c2ccccc2O)cc1
- EC50 [2]: 35.5 µM (active)

Structure (SMILES): O=C(Nc1ccc(Cl)cc1)C(c1ccccc1)N(CCO)CCO (stereo not given)
- IC50 (Protein skinhead-1): > 100 µM (inactive)

Structure (SMILES): Cc1cccc(C(=O)Nc2ccc(C(=O)/C=C/c3cccs3)cc2)c1
- IC50 (Protein skinhead-1): > 100 µM (inactive)
